Test system: Human ciliated epithelium cells
Assay: in-vitro ciliary vibration (ciliary activity) test
Format: cell-based
Method: The corresponding cells were exposed and incubated with 100 μl test substance at a temperature of 37° C.

N=C(NCCCCCCNC(=N)NC(=N)Nc1ccc(Cl)cc1)NC(=N)Nc1ccc(Cl)cc1 [chlorohexidine]
ciliary activity / ciliary vibration: decrease of the measured ciliary vibration
